Here are results for 15 compounds from patent US20260274832A1, “COMPOUNDS AND THEIR USE IN TREATING CANCER” (ASTRAZENECA AB, priority 2023, published 2026).

SMILES strings stand for the structures.

Test [1] addresses T1, AR (L702H) in LNCaP cells (Homo sapiens, UniProt P10275, L702H/T878A).
T1 construct: engineered to introduce the mutation L702H into the AR gene using CRISPR/Cas9; endogenous in cells; host or cells: LNCaP cells edited by CRISPR/Cas9 at the AR gene
Kind of test: LNCaP Androgen Receptor L702H Imaging Assay (LNCaP cells engineered by CRISPR/Cas9). Format: cell-based. Conditions: LNCaP cells with AR L702H mutation, 24 h incubation; for DC50: concentration giving 50% of maximum degradation of AR (L702H) per curve fit; for LNCaP AR (L702H) Degradation Dmax / Dmax: maximum degradation observed, normalized as % of positive control; for Dmax: LNCaP. The method in brief:
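CRISPR-engineered LNCaP cells carrying AR L702H were treated 24 h at 37 °C with a 12-point compound dose response (0.3% DMSO), then fixed and immunostained for AR with DRAQ5 nuclear counterstain. Nuclear AR was quantified by imaging, normalized to positive control; DC50 and Dmax came from Hill or bell-shaped fits.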

In test [2] the target is T2, AR (AR-full length) in LNCaP cells (Homo sapiens, UniProt P10275, T878A).
T2 construct: the prostate cancer cell line LNCaP (expressing AR-full length); endogenous in cells; host or cells: LNCaP
T2 sequence (P10275 whole entry T878A): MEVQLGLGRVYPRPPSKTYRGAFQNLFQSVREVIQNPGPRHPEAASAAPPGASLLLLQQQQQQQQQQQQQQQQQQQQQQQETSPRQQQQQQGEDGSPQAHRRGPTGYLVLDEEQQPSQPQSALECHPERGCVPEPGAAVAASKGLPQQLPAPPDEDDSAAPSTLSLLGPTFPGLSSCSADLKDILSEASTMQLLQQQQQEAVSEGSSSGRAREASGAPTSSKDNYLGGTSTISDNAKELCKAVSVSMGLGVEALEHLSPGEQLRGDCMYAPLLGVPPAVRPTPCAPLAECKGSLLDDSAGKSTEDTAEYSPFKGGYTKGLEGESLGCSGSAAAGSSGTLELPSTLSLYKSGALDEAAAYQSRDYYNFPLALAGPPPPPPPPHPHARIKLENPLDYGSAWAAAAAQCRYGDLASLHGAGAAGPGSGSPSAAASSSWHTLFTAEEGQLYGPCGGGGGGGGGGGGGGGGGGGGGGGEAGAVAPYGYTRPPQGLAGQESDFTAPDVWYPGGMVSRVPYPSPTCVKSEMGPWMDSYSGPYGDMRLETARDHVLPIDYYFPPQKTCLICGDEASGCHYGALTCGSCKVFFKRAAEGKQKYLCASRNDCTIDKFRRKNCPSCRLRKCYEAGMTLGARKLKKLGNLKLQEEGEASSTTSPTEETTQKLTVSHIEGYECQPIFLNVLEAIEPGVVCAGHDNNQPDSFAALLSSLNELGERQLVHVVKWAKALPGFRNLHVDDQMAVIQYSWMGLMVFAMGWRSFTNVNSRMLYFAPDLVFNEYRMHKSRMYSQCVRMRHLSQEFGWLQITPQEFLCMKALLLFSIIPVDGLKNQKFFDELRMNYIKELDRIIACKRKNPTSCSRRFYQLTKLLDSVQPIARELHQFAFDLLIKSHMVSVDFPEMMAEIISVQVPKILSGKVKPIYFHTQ
T2 sequence (Q96SW2 whole entry partner): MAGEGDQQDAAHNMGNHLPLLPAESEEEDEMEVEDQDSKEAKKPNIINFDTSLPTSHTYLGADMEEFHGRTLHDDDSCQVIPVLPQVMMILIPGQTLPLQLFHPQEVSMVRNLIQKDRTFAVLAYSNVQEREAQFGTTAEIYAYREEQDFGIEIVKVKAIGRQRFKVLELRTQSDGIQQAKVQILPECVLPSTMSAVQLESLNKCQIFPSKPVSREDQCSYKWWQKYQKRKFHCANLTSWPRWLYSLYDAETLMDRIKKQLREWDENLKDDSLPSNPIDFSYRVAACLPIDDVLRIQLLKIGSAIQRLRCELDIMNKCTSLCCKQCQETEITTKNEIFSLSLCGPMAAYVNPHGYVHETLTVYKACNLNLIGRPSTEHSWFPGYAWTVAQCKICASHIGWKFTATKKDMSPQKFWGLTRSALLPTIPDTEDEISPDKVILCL
As to the kind of experiment: LNCaP Androgen Receptor Imaging Assay (immunofluorescence of endogenous nuclear AR). Format: cell-based. The conditions noted are these: 24 h incubation; for DC50: concentration giving 50% of maximum degradation of AR per curve fit, single experiment or average of two or more; for LNCaP AR Degradation Dmax / Dmax: maximum degradation observed, normalized as % of positive control (prior art AR PROTAC at 3 μM); for Dmax: LNCaP. The method in brief: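 LNCaP cells (12,000/well) received a 12-point compound dose series (0.3% DMSO) for 24 h at 37° C., then were PFA-fixed and stained for AR (AR441) and nuclei (DRAQ5). Nuclear AR was quantified by imaging, normalized to a 3 μM AR PROTAC control; DC50 and Dmax came from Hill/bell curve fits.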

T1 sequence (P10275 whole entry L702H/T878A): as the sequence (P10275 whole entry T878A) above, with L702H counted along it
T1 sequence (Q96SW2 whole entry partner): as the sequence (Q96SW2 whole entry partner) above

On to `N#Cc1n[nH]c2c(N3CCOC(c4ccc(N5CCC(CN6CCC(n7ccc8c(N9CCC(=O)NC9=O)cccc87)CC6)CC5)cc4)C3)ccc(Cl)c12` (single isomer, unassigned) [Example 120, 4-Chloro-7-[(2R*)-2-{4-[4-({4-[4-(2,4-dioxo-1,3-diazinan-1-yl)-1H-indol-1-yl]piperidin-1-yl}methyl)piperidin-1-yl]phenyl}morpholin-4-yl]-1H-indazole-3-carbonitrile], for which, in test [1], the DC50 amounted to 40 nM and the “LNCaP AR (L702H) Degradation Dmax” value worked out at 90%. Besides, in test [2], half-maximal degradation (DC50) was put at 13 nM and the “LNCaP AR Degradation Dmax” value came out at 101%.

`N#Cc1c[nH]c2c(N3CCCC(c4ccc(N5CCC(CN6CCC(n7ccc8c(N9CCC(=O)NC9=O)cccc87)CC6)CC5)nn4)C3)ccc(Cl)c12` (single isomer, unassigned) [Example 121, 4-Chloro-7-[(3R*)-3-{6-[4-({4-[4-(2,4-dioxo-1,3-diazinan-1-yl)-1H-indol-1-yl]piperidin-1-yl}methyl)piperidin-1-yl]pyridazin-3-yl}piperidin-1-yl]-1H-indole-3-carbonitrile]: in test [1], it took 3100 nM to reach half-maximal degradation (DC50) and the “LNCaP AR (L702H) Degradation Dmax” value worked out at 98%. In test [2], it took 18 nM to reach half-maximal degradation (DC50) and the Dmax is 81%.

Regarding `N#Cc1c[nH]c2c(N3CCCC(c4ccc(N5CCC(CN6CCC(n7ccc8c(N9CCC(=O)NC9=O)cccc87)CC6)CC5)nn4)C3)ccc(Cl)c12` (single isomer, unassigned) [Example 122, 4-Chloro-7-[(3S*)-3-{6-[4-({4-[4-(2,4-dioxo-1,3-diazinan-1-yl)-1H-indol-1-yl]piperidin-1-yl}methyl)piperidin-1-yl]pyridazin-3-yl}piperidin-1-yl]-1H-indole-3-carbonitrile], in test [1], the DC50 turned out to be 67 nM and the “LNCaP AR (L702H) Degradation Dmax” value was 75%. In test [2], the half-maximal degradation concentration (DC50) worked out at 93 nM and the “LNCaP AR Degradation Dmax” value is 85%.

As for `Cc1ccc(N2CCC(c3ccc(OCCCCN4CCN(c5ccc6c(c5)CN(C5CCC(=O)NC5=O)C6=O)CC4)cc3)C2)c2[nH]cc(C#N)c12` (single isomer, unassigned) [Example 150, 7-{(3S*)-3-[4-(4-{4-[2-(2,6-Dioxopiperidin-3-yl)-1-oxo-2,3-dihydro-1H-isoindol-5-yl]piperazin-1-yl}butoxy)phenyl]pyrrolidin-1-yl}-4-methyl-1H-indole-3-carbonitrile], in test [1], the DC50 came out at 893 nM and the Dmax came to 50%. Also, in test [2], it took 14 nM to reach half-maximal degradation (DC50) and the Dmax was 82%.

For `Cc1ccc(N2CCC(c3ccc(OCCCCN4CCN(c5ccc6c(c5)CN(C5CCC(=O)NC5=O)C6=O)CC4)cc3)C2)c2[nH]cc(C#N)c12` (single isomer, unassigned) [Example 151, 7-{(3R*)-3-[4-(4-{4-[2-(2,6-Dioxopiperidin-3-yl)-1-oxo-2,3-dihydro-1H-isoindol-5-yl]piperazin-1-yl}butoxy)phenyl]pyrrolidin-1-yl}-4-methyl-1H-indole-3-carbonitrile], in test [1], the DC50 was determined as 497 nM and the “LNCaP AR (L702H) Degradation Dmax” value is reported as 42%. Besides, in test [2], the half-maximal degradation concentration (DC50) came to 18 nM and the “LNCaP AR Degradation Dmax” value was determined as 67%.

Take `N#Cc1c[nH]c2c(N3CCCC(NC(=O)c4ccc(N5CCC(CN6CCN(c7ccc8c(c7)CN(C7CCC(=O)NC7=O)C8=O)CC6)CC5)cn4)C3)ccc(Cl)c12` (single isomer, unassigned) [Example 180, N-[(3R*)-1-(4-Chloro-3-cyano-1H-indol-7-yl)piperidin-3-yl]-5-[4-({4-[2-(2,6-dioxopiperidin-3-yl)-1-oxo-2,3-dihydro-1H-isoindol-5-yl]piperazin-1-yl}methyl)piperidin-1-yl]pyridine-2-carboxamide]: in test [1], the DC50 worked out at 2 nM and the Dmax worked out at 88%. Besides, in test [2], it took 3 nM to reach half-maximal degradation (DC50) and the Dmax amounted to 94%.

Turning to `N#Cc1c[nH]c2c(N3CCCC(NC(=O)c4ccc(N5CCC(CN6CCN(c7ccc8c(c7)CN(C7CCC(=O)NC7=O)C8=O)CC6)CC5)cn4)C3)ccc(Cl)c12` (single isomer, unassigned) [Example 181, N-[(3S*)-1-(4-Chloro-3-cyano-1H-indol-7-yl)piperidin-3-yl]-5-[4-({4-[2-(2,6-dioxopiperidin-3-yl)-1-oxo-2,3-dihydro-1H-isoindol-5-yl]piperazin-1-yl}methyl)piperidin-1-yl]pyridine-2-carboxamide], in test [1], the DC50 came out at 9 nM and the “LNCaP AR (L702H) Degradation Dmax” value was 95%. Further, in test [2], the DC50 is 4 nM and the “LNCaP AR Degradation Dmax” value came out at 95%.

For `N#Cc1c[nH]c2c(N3CCC(c4ccc(N5CCC(CN6CCN(c7ccc8c(c7)CN(C7CCC(=O)NC7=O)C8=O)CC6)CC5)cc4)CC3)ccc(Cl)c12` (stereo not drawn) [Example 1, 4-Chloro-7-(4-{4-[4-({4-[2-(2,6-dioxopiperidin-3-yl)-1-oxo-2,3-dihydro-1H-isoindol-5-yl]piperazin-1-yl}methyl)piperidin-1-yl]phenyl}piperidin-1-yl)-1H-indole-3-carbonitrile], in test [1], half-maximal degradation (DC50) was put at 6 nM and the Dmax worked out at 100%. Also, in test [2], it took 6 nM to reach half-maximal degradation (DC50) and the Dmax was found to be 99%.

Take `N#Cc1c[nH]c2c(N3CCC(c4ccc(N5CCC(CN6CCN(c7ccc8c(c7)CN(C7CCC(=O)NC7=O)C8=O)CC6)CC5)cc4)CC3)ccc(F)c12` (stereo not drawn) [Example 2, 7-(4-{4-[4-({4-[2-(2,6-Dioxopiperidin-3-yl)-1-oxo-2,3-dihydro-1H-isoindol-5-yl]piperazin-1-yl}methyl)piperidin-1-yl]phenyl}piperidin-1-yl)-4-fluoro-1H-indole-3-carbonitrile]: in test [1], the DC50 was 5 nM and the Dmax came out at 101%. In test [2], the DC50 came out at 6 nM and the Dmax turned out to be 96%.

With `N#Cc1c[nH]c2c(N3CCC(c4ccc(N5CCC(CN6CCC(n7ccc8c(N9CCC(=O)NC9=O)cccc87)CC6)CC5)cc4)CC3)ccc(Cl)c12` [Example 5, 4-Chloro-7-(4-{4-[4-({4-[4-(2,4-dioxo-1,3-diazinan-1-yl)-1H-indol-1-yl]piperidin-1-yl}methyl)piperidin-1-yl]phenyl}piperidin-1-yl)-1H-indole-3-carbonitrile], in test [1], it took 12 nM to reach half-maximal degradation (DC50) and the Dmax stood at 110%. Moreover, in test [2], the DC50 was determined as 8 nM and the Dmax is 103%.

As to `N#Cc1c[nH]c2c(N3CCC(c4ccc(N5CCC(CN6CCC(n7ccc8c(N9CCC(=O)NC9=O)cccc87)CC6)CC5)cc4)CC3)ccc(F)c12` [Example 6, 7-(4-{4-[4-({4-[4-(2,4-Dioxo-1,3-diazinan-1-yl)-1H-indol-1-yl]piperidin-1-yl}methyl)piperidin-1-yl]phenyl}piperidin-1-yl)-4-fluoro-1H-indole-3-carbonitrile], in test [1], it took 13 nM to reach half-maximal degradation (DC50) and the Dmax was found to be 103%. Besides, in test [2], it took 10 nM to reach half-maximal degradation (DC50) and the Dmax is 100%.

Regarding `COc1cc(N2CCN(CC3CCN(c4ccc(C5CCN(c6ccc(Cl)c7c(C#N)c[nH]c67)CC5)cc4)CC3)CC2)cc2c1C(=O)N(C1CCC(=O)NC1=O)C2` (stereo not drawn) [Example 7, 4-Chloro-7-(4-{4-[4-({4-[2-(2,6-dioxopiperidin-3-yl)-7-methoxy-1-oxo-2,3-dihydro-1H-isoindol-5-yl]piperazin-1-yl}methyl)piperidin-1-yl]phenyl}piperidin-1-yl)-1H-indole-3-carbonitrile], in test [1], half-maximal degradation (DC50) was put at 14 nM and the Dmax was 101%. Further, in test [2], half-maximal degradation (DC50) was put at 9 nM and the Dmax turned out to be 98%.

Consider `Cc1ccc(N2CCC(c3ccc(N4CCC(CN5CCC(n6ccc7c(N8CCC(=O)NC8=O)cccc76)CC5)CC4)cc3)CC2)c2[nH]cc(C#N)c12` [Example 8, 7-(4-{4-[4-({4-[4-(2,4-Dioxo-1,3-diazinan-1-yl)-1H-indol-1-yl]piperidin-1-yl}methyl)piperidin-1-yl]phenyl}piperidin-1-yl)-4-methyl-1H-indole-3-carbonitrile], for which, in test [1], half-maximal degradation (DC50) was put at 103 nM and the Dmax was found to be 96%. Moreover, in test [2], the DC50 is 29 nM and the Dmax amounted to 99%.

For the compound `N#Cc1n[nH]c2c(N3CCC[C@@H](c4ccc(N5CCC(CN6CCC(n7ccc8c(N9CCC(=O)NC9=O)cccc87)CC6)CC5)cc4)C3)ccc(Cl)c12` [Example 9], in test [1], it took 9 nM to reach half-maximal degradation (DC50) and the Dmax amounted to 106%. In test [2], the DC50 is 7 nM and the Dmax was found to be 105%.

Regarding `N#Cc1n[nH]c2c(N3CCC[C@@H](c4ccc(N5CCC(CN6CCN(c7ccc8c(c7)CN(C7CCC(=O)NC7=O)C8=O)CC6)CC5)cc4)C3)ccc(Cl)c12` (stereo partly drawn) [Example 10, 4-Chloro-7-[(3S)-3-{4-[4-({4-[2-(2,6-dioxopiperidin-3-yl)-1-oxo-2,3-dihydro-1H-isoindol-5-yl]piperazin-1-yl}methyl)piperidin-1-yl]phenyl}piperidin-1-yl]-1H-indazole-3-carbonitrile], in test [1], the DC50 was 5 nM and the Dmax is 103%. Further, in test [2], half-maximal degradation (DC50) was put at 7 nM and the Dmax is 96%.
